{"source": "paper PMC7969932", "about": "“Population pharmacokinetics and dose optimization of vancomycin in neonates” (Scientific Reports, 2021)", "key": {"[1]": {"experiment": "Population pharmacokinetic modeling of vancomycin (NONMEM, one-compartment, first-order elimination; bootstrap, pc-VPC)", "protocol": "For the analysis of vancomycin population pharmacokinetic parameters, nonlinear mixed-effect modeling was performed using NONMEM ver. 7.3 (Icon Development Solutions, Ellicott City, MD, USA) in conjunction with Perl Speaks NONMEM (PsN ver. 4.4.0), Pirana (ver. 2.9.7), and Xpose (ver. 4.0) contained in the R software package (ver. 3.5.0; http://www.r-project.org). The population analysis was conducted using the first-order conditional estimation method (FOCE) with ε–η interaction (FOCE INTER). One- and two-compartment models with first-order elimination were evaluated as potential structural pharmacokinetic models. The fixed-effect parameters were total clearance (CL) and volume of distribution (V) for the one-compartment model, and total CL, central V (V1), peripheral V (V2), and inter-compartmental CL (Q) for the two-compartment model. Possible correlations among the interindividual variability for pharmacokinetic parameters in the model were assessed by the OMEGA BLOCK functionality. Allometric scaling was applied to CL and isometric scaling was applied to V to standardize the pharmacokinetic parameters. The final allometric model was as follows: 3 CL=θCL×(WTi/70)^0.75 4 V=θV×(WTi/70)^1 where CL is the clearance in the ith individual with body weight WTi; θCL is the typical CL value in a standardized adult (70 kg); and θv is the typical V in a standardized adult (70 kg). Interindividual variability in the PK parameters was analyzed using exponential and power models. Covariance between interindividual variability was estimated using a variance–covariance matrix. Residual variability was attempted using additive, proportional, and combined models.\nCovariates were investigated for the population modeling using linear, proportional, power, and exponential functions. […] When objective function value was decreased by at least 3.84 (χ^2-test, P < 0.05) from the structural model during the forward selection, the covariate was included in the model. All covariates that met the criteria were added to develop the full model. Then, during backward elimination, any covariate with an increase of at least 6.64 (χ^2-test, P < 0.01) was kept in the model. The categorical covariates tested were as follows: sex (where female = 1, male = 0), and types of delivery (where NsvD = 0, Csec = 1). The continuous covariates tested were body weight, blood urea nitrogen, SCr, protein, albumin, neutrophil, AST, ALT, CRP, WBC, height, PMA, PNA, CLcr, and gestational age.\nModel validation was performed via three methods: graphical diagnostics using a goodness-of-fit plot, bootstrapping, and a pc-VPC. Individual observed vs. individual-predicted values and conditional weighted residual vs. time or population-predicted values or individual-predicted values were plotted using R for NONMEM. Bootstrap datasets were repeated 1,000 times using the final model; the pc-VPC was performed as a diagnostic plot."}, "[2]": {"settings": "Css,trough 15–20 μg/mL, neonates; cited from earlier work", "description": "(§1) There are numerous approaches to determining the adequate dosage regimen of vancomycin in neonates. To reflect PD and PK, area-under-the-curve concentrations versus time to the minimum inhibitory concentrations (AUC: MIC) can be used."}, "[3]": {"settings": "cited from earlier work", "description": "as §1"}, "[4]": {"settings": "1000 resampled data sets (993 successful), per 70 kg"}}, "data": [{"smiles": "CN[C@H](CC(C)C)C(=O)N[C@H]1C(=O)N[C@@H](CC(N)=O)C(=O)N[C@H]2C(=O)N[C@H]3C(=O)N[C@H](C(=O)N[C@H](C(=O)O)c4cc(O)cc(O)c4-c4cc3ccc4O)[C@H](O)c3ccc(c(Cl)c3)Oc3cc2cc(c3O[C@@H]2O[C@H](CO)[C@@H](O)[C@H](O)[C@H]2O[C@H]2C[C@](C)(N)[C@H](O)[C@H](C)O2)Oc2ccc(cc2Cl)[C@H]1O", "note": "[vancomycin]", "values": [{"measurement": "θ1, typical value of clearance, Bootstrap median (95% CI)", "setting": "[1]; [4]", "result": "2.07 (1.94, 2.21) L/h"}, {"measurement": "θ4, typical value of volume of distribution, Bootstrap median (95% CI)", "setting": "[1]; [4]", "result": "45.7 (41.6, 50.6) L"}, {"measurement": "θ2, power of PMA/31.7 on clearance, Estimate (%RSE)", "setting": "[1]; final model", "result": "0.795 (26%)"}, {"measurement": "θ3, power of CLcr/50.3 on clearance, Estimate (%RSE)", "setting": "[1]; final model", "result": "0.741 (6%)"}, {"measurement": "θ4, typical value of volume of distribution (TVV), Estimate (%RSE)", "setting": "[1]; standardized to 70 kg (power 1), final model", "result": "45.6 (5%) L"}, {"measurement": "Nephrotoxicity", "setting": "[2]", "result": "higher nephrotoxicity"}, {"measurement": "Css,trough that could satisfy AUC0-24/MIC ≥ 400 with less toxicity", "setting": "[3]", "result": "5 to 15", "unit": "µg/mL"}, {"measurement": "Trough concentrations that can achieve AUC0-24/MIC ≥ 400", "setting": "[3]", "result": "around 10 mg/L"}]}]}
